Reference: US4886806A, “Flavone-3-carboxylic acids compounds and pharmaceutical compositions containing them” (Kali-Chemie Pharma GmbH, priority 1987, dated 1989)

What was measured:
[1] = test system: oxygen radical-forming activity of activated peritoneal exudate cells (PEC) of mice; experiment: Peak chemiluminescence (CL) test: inhibition of oxygen radical liberation from activated peritoneal exudate cells; assay type: cell-based; conditions: 10^-4 Mol substance/l, added at peak of cell activity; for inhibition at 100 µM (stock): Mus musculus, read-out: Inhibition in vitro of the oxygen radical liberation, Chemiluminescence Test % inhibition, Pk. CL
Procedure: 1. To determine the inhibiting effect on the oxygen radical-forming activity of inflamed cells, the in vitro inhibition of the release of oxygen radicals from activated peritoneal exudate cells (=PEC) of mice was determined in the chemiluminescence (CL) test according to the method of Mueller-Peddinghaus (Int. J. Immunopharmac. 6, 455-466 (1984)). […] The intensity of the chemiluminescence is a measurement of the oxygen radical content in the suspension and thus the degree of activity of the inflamed cells. In this, three functionally different parameters are detected, the spontaneous CL, the induced CL and the peak CL. The spontaneous CL and the induced CL on the one hand and the peak CL on the other hand differ from each other because in the first two parameters the test substances are in contact with the cells for a 30 minute preincubation period before the inflammation irritant is added, whereas with the peak CL the cells are first stimulated, and the test substance is added at the peak of their activity. The measurement of the spontaneous CL thus detects the influence of the test substance on the relative rest activity of inflamed cells, the induced CL represents the effect of the test substances on the activatability of the cells and the inhibition of the peak CL indicates the effect of the test substances on the maximum activity of the inflamed cells. 1.1 Production of PEC suspension used in the test. In order to induce the PEC formation, female mice of 20-25 g body weight were each injected i.p. with 2 ml of a 3% solution of thioglycollate in sterile isotonic sodium chloride solution. Twenty four hours after the thioglycollate injection the cells, which predominantly consisted of polymorphonuclear leucocytes, were recovered by washing out of the abdominal cavity and washed twice. As cell culture medium there was added a commercially available solution under the designation RPMI 1640 (pH 7.2) (produced by Flow Laboratories, […], Germany), which contains 10% fetal calf serum (FCS, produced by Seromed GmbH, Munich, Germany) 18 μmol/l sodium bicarbonate and 2 μmol/l L-glutamine. The cell pellets of four animals each time were resuspended in cell culture medium, collected together and the suspension was made up to 2×10^6 cells per ml with cell culture medium. The cell suspensions were kept under ice cooling until their use the same day. 1.2 Production of the complement opsonized zymosan (=ZyC3 b) suspension used for activation. 200 mg zymosan (glycoprotein mixture isolated from the cell walls of brewer's yeast, Sacchomyces […], produced by Sigma Chemical Co., Munich, Germany) were suspended in 10 ml phosphate buffer solution according to Dulbecco (produced by Flow Laboratories, […], Germany), well stirred and heated for thirty minutes in a water bath to 100° C. After cooling, it was centrifuged for five minutes at 4° C. and at 600 ×g and the supernatant was discarded. The sediment was resuspended in 50 ml human serum and incubated for thirty minutes at 37° C. in a shaking water bath. Then it was centrifuged for five minutes at 600 ×g and 420 C., the supernatant decanted and the sediment washed with phosphate buffer solution. The working suspension of 8×10^-3 g ZyC3 b/ml was produced from the sediment by dilution with phosphate buffer solution (Mueller-Peddinghaus et al., Zbl. Vet. Med. B. 30, 559-575). 1.3 Chemiluminescence (CL) measurement (Peak-CL). The PEC suspension was divided into samples of 100 μl each, placed in test tubes, and these were incubated for ten minutes at a temperature of 3720 C. in a measurement device (Chemiluminescence analyzer, Laboratorium Prof. Berthold, Wildbad, Germany). Then in order to amplify the chemiluminescence, 100 μl lucigenin solution was added (final concentration 1.54×10^-4 mol/l) and incubated for 16 more minutes. The cells were then activated by the addition of 100 μl of the ZyC3 b suspension produced as described in section 1.2 plus 100 μl phosphate buffer solution. […]

[2] = test system: carrageenin foot edema in male Wistar rats; experiment: Inhibition of carrageenin foot edema in rats (Winter et al.); assay type: in vivo; conditions: Rattus norvegicus, 2 h after irritant; for inhibition in vivo at 100 µmol/kg: 100 μmol/kg p.o.
Procedure: A similar volume of isotonic sodium chloride solution was injected in the left hind foot. The volume of the each rat's foot was measured plethysmometrically both before and two hours after administration of the irritant, and the swelling of the foot volume after the carrageenin application was compared to the foot which was treated only with sodium chloride solution The inhibition of edema formation by the test substances in the treated animals was compared in percentage terms with the animals of the untreated control group.

[3] = test system: male mice; experiment: Determination of the minimum toxic dose; assay type: in vivo; conditions: max. dose 300 mg/kg, 24 h
Procedure: 3. Determination of the minimum toxic dose.
Male mice of 20 to 25 g weight were given maximal doses of 300 mg/kg of test substance per os. The animals were carefully watched over a period of three hours for toxicity symptoms. Over a period of twenty-four hours after administration, all symptoms and deaths were recorded. Associated symptoms were also watched and recorded. If death or strongly toxic symptoms were noted, further mice were given increasingly lower doses. The lowest dose which brought about death or strongly toxic symptoms was reported as the minimum toxic dose.

SMILES	inhibition at 100 µM (stock) [1] [%]	inhibition in vivo at 215 µmol/kg ([2]; ip, 215 μmol/kg i.p.) [%]	inhibition in vivo at 215 µmol/kg ([2]; po, 215 μmol/kg p.o.) [%]	Minimal toxic dose mg/kg mouse p.o. [3] [mg/kg]	inhibition in vivo at 100 µmol/kg ([2]; po) [%]	Inhibition in vitro of the oxygen radical liberation, Chemiluminescence Test % inhibition, Pk. CL [1] [%]
O=C(NCCc1ccccn1)c1c(-c2cc(O)c(O)c(O)c2)oc2ccccc2c1=O [Example 53]	77	50	–	–	–	–
COc1cc(OC)c2c(=O)c(C(=O)N3CCN(c4ccccn4)CC3)c(-c3ccccc3)oc2c1 [Example 34]	25	–	30	–	–	–
CN1CCN(CCCCNC(=O)c2c(-c3ccccc3)oc3ccccc3c2=O)CC1 [Example 24]	1	–	–	> 300	–	–
O.O.O=C(O)C(O)C(O)C(=O)O.O=C(c1c(-c2cc(O)c(O)c(O)c2)oc2ccccc2c1=O)N1CCN(Cc2ccccc2)CC1 [Example 14e, 3',4',5'-trihydroxy-3-[(4-benzylpiperazin-1-yl)carbonyl] -flavone tartrate dihydrate]	99	33	–	> 300	–	–
Cl.O=C(c1c(-c2ccccc2)oc2ccccc2c1=O)N1CCN(c2ccccn2)CC1 [Example 1c, 3-{[4-(2-Pyridyl)-piperazin-1-yl]-carbonyl}flavone hydrochloride]	47	55	–	> 300	44	–
COc1ccc(-c2oc3ccccc3c(=O)c2C(=O)N2CCN(c3ccccn3)CC2)cc1OC [Example 32b]	56	–	–	> 300	–	–
COc1cc(-c2oc3ccccc3c(=O)c2C(=O)N2CCN(c3ccccn3)CC2)cc(OC)c1OC [Example 7b, 3',4',5'-trimethoxy-3-{[4-(2-pyridyl)-piperazin-1-yl]-carbonyl}flavone]	–	–	40	> 300	–	44
CC(=O)Oc1cc(-c2oc3ccccc3c(=O)c2C(=O)N2CCN(c3ccccn3)CC2)cc(OC(C)=O)c1OC(C)=O [Example 39b]	99	62	–	–	–	–
CCN(CC)CCCOC(=O)c1c(-c2ccccc2)oc2ccccc2c1=O.Cl [Example 3b, 3-[3-(diethylamino)propoxycarbonyl]flavone hydrochloride]	61	–	–	300	–	–
COc1cc(-c2oc3ccccc3c(=O)c2C(=O)NCCCCN2CCN(c3ncccn3)CC2)cc(OC)c1OC [Example 54]	72	40	–	> 300	–	–
O=C(NCCCCN1CCN(c2ccccn2)CC1)c1c(-c2ccccc2)oc2ccccc2c1=O [Example 4e, 3-{4-[4-(2-pyridyl)-piperazin-1-yl]-butylaminocarbonyl}flavone]	76	54	50	300	–	–
COc1cc(-c2oc3ccccc3c(=O)c2C(=O)N2CCN(c3ccccn3)CC2)cc(OC)c1OC [Example 7a, 3',4',5'-trimethoxy-3-{[4-(2-pyridyl)-piperazin-1-yl]-carbonyl}flavone]	–	–	–	> 300	–	68
O.O=C(O)C(O)C(O)C(=O)O.O=C(c1c(-c2ccccc2)oc2ccccc2c1=O)N1CCN(Cc2ccccc2)CC1 [Example 2b, 3-[(4-benzyl-piperazin-1-yl)-carbonyl]flavone tartrate monohydrate]	58	–	–	> 300	25	–
O=C(c1c(-c2cccc(O)c2)oc2ccccc2c1=O)N1CCN(Cc2ccccc2)CC1 [Example 30]	85	–	–	> 300	–	–
